Experimental findings from ChEMBL document CHEMBL1138912, “Dipeptidyl nitriles as human dipeptidyl peptidase I inhibitors” (Bioorg Med Chem Lett, 2006) are described below.

Structures are written as SMILES. Activity calls are given as the source filed them. No cut-off for these calls is given here. Bounds are passed on as bounds.

For series [1], the target named is T1, Dipeptidyl peptidase 1 (Homo sapiens, UniProt P53634). As to the kind of experiment: Inhibition of human DPP1.
Series [2] can be described thus: Metabolic stability in rat liver microsomes after 15 min. It counts as ADME, Microsome. To be noted: read-out: Stability.
The next series concerns the target Cathepsin B (Homo sapiens, UniProt P07858). As to the kind of experiment: Inhibition of Cathepsin B.
For the next series, the target named is T2, Pro-cathepsin H (Homo sapiens, UniProt P09668).
T2 sequence (P09668 whole entry): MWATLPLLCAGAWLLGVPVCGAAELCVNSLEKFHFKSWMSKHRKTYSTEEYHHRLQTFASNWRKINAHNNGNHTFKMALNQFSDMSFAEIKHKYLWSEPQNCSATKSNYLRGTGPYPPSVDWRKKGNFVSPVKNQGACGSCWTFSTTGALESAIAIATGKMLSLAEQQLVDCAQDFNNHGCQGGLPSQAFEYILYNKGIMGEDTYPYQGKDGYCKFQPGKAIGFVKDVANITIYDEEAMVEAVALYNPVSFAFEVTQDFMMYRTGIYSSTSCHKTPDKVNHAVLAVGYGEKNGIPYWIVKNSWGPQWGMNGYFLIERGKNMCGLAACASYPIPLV
As to the kind of experiment: Inhibition of Cathepsin H.

The target of the next series is Procathepsin L (Homo sapiens, UniProt P07711). As to the kind of experiment: Inhibition of Cathepsin L.
Another series deals with Cytochrome P450 2C9 (Homo sapiens, UniProt P11712). As to the kind of experiment: Inhibition of CYP2C9. It counts as ADME.
Another series has as its target Cytochrome P450 2C19 (Homo sapiens, UniProt P33261). As to the kind of experiment: Inhibition of CYP2C19. It counts as ADME.
The target in series [3] is T1, Dipeptidyl peptidase 1. As to the kind of experiment: Inhibition of human DPP1 at 20 uM.
Series [4] addresses T1, Dipeptidyl peptidase 1. As to the kind of experiment: Residual activity at human DPP1 at 10 uM.

T1 sequence (P53634 25-134 limits assumed): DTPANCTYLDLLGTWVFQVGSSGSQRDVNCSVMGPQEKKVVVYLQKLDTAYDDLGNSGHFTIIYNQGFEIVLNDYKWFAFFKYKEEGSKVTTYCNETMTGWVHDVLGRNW
T1 sequence (P53634 231-394 limits assumed): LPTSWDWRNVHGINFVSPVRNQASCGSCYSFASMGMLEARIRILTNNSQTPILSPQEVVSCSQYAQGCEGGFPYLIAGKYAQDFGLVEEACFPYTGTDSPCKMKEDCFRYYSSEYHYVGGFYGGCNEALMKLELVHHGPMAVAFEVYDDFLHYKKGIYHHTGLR
T1 sequence (P53634 395-463 limits assumed): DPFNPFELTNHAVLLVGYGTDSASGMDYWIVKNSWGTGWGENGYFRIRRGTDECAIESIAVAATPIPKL
Chain of Cytochrome P450 2C19 (P33261 whole entry): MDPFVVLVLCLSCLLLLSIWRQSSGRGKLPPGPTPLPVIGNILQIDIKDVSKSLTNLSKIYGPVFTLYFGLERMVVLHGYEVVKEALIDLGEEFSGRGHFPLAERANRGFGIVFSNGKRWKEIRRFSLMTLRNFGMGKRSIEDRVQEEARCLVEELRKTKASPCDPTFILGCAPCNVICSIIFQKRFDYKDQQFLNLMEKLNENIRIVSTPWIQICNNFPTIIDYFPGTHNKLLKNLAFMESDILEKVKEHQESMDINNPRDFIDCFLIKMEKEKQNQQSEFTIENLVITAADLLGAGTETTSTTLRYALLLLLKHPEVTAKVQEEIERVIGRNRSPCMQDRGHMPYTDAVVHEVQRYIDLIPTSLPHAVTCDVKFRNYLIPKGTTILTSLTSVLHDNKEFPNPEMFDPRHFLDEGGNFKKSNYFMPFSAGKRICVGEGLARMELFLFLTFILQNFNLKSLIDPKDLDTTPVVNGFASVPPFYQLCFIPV
Chain of Cytochrome P450 2C9 (P11712 whole entry): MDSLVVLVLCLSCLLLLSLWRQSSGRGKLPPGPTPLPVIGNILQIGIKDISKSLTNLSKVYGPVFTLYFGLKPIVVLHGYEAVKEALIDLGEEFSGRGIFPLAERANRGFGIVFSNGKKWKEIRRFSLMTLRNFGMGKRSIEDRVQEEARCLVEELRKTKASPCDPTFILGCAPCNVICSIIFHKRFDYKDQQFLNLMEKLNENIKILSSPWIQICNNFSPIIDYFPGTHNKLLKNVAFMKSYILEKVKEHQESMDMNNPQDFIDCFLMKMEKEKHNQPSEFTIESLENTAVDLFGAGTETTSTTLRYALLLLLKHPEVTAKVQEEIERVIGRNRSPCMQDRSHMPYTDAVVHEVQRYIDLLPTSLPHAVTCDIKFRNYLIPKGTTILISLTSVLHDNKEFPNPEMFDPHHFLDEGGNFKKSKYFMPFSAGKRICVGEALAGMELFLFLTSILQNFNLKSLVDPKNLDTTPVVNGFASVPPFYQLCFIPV
Chain of Procathepsin L (P07711 whole entry): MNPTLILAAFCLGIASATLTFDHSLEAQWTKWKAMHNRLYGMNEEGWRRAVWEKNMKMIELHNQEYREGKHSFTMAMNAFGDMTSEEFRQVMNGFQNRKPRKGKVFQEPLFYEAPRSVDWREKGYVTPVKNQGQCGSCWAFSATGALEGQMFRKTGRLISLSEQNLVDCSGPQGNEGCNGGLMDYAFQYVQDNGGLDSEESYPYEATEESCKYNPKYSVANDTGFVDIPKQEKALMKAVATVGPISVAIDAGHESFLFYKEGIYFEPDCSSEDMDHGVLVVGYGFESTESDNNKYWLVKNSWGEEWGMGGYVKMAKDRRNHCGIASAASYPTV

The term IC50 denotes the concentration that inhibits the measured activity by half. Lower therefore signals greater potency in that assay. For the molecule `N#C[C@H](Cc1ccccc1)NC(=O)[C@@H]1CCCN1`, the IC50 against Dipeptidyl peptidase 1 [1] is 9640 nM. Further, the remaining at 0.25 h in series [2] is 39%.

Regarding `CC[C@H](N)C(=O)N[C@H](C#N)Cc1ccc(-c2ccccc2)cc1`, the concentration for half-maximal inhibition (IC50) against Cathepsin B was above 10000 nM; at Pro-cathepsin H, above 10000 nM; against Procathepsin L, above 10000 nM; against Cytochrome P450 2C9, above 20000 nM; against Cytochrome P450 2C19, above 20000 nM.

On Dipeptidyl peptidase 1 [1], `CC[C@H](N)C(=O)N[C@H](C#N)CCc1ccccc1` had an IC50 of 822 nM. In addition, in series [2], the remaining at 0.25 h was determined as 74%.

On Dipeptidyl peptidase 1 [1], `CC[C@H](N)C(=O)N[C@H](C#N)Cc1ccc(Cl)cc1` came in with an IC50 of 96 nM. Besides, the remaining at 0.25 h in series [2] came to 70%.

Molecule `N#CC(Cc1ccccc1)NC(=O)[C@@H](N)Cc1ccccc1` (stereo in doubt) yielded an IC50 at Dipeptidyl peptidase 1 [1] of 294 nM.

Regarding `N#C[C@H](Cc1ccccc1)N1CC[C@H](N)C1=O`, the inhibition entry on Dipeptidyl peptidase 1 [3] was “inactive”.

On Dipeptidyl peptidase 1 [4], `CC[C@H](N)C(=O)N(C)[C@H](C#N)Cc1ccccc1` had an Activity of 94%.

Consider `N#C[C@H](Cc1ccccc1)NC(=O)CN`, for which the IC50 against Dipeptidyl peptidase 1 [1] worked out at 4790 nM.

At Dipeptidyl peptidase 1 [1], `N#CC(Cc1ccccc1)NC(=O)[C@@H](N)Cc1ccccc1` (single isomer, unassigned; isomer B) returned a half-inhibitory concentration (IC50) of 6300 nM.

In turn, `CC[C@H](N)C(=O)N[C@H](C#N)C/C=C/c1ccccc1` showed an IC50 against Dipeptidyl peptidase 1 [1] of 137 nM.

For the molecule `N#CC(Cc1ccccc1)NC(=O)[C@@H](N)Cc1ccccc1` (stereo in doubt; 8), the IC50 on Dipeptidyl peptidase 1 [1] was determined as 418 nM. Also, the remaining at 0.25 h in [2] was 45%.

With `CC[C@H](N)C(=O)N[C@H](C#N)Cc1ccccc1`, the IC50 at Dipeptidyl peptidase 1 [1] amounted to 172 nM. The remaining at 0.25 h in [2] came to 80%.
